In US20260015339A1, “CALIX[4]ARENES WITH HIGH ANTICANCER ACTIVITY” (UNIVERSITE GRENOBLE ALPES, priority 2023, published 2026):
Converted amounts (≈) assume the structure as drawn.

Tests used:
[1] = Ag^+ transport into liposomes with encapsulated BCS; details: after 100 s, silver gradient of 50 μM, 1:1000 transporter to lipid ratio, added from DMSO
Experimental: Liposomes with BCS encapsulated were prepared as described above in the part entitled “II—C—1—Determination of the transport of Cu^+by the examples of calix[4]arenes” and measurements were performed as described in this part.
A Ag^+ solution was prepared by dissolving AgNO3 in a phosphate buffer at 3.05 mM concentration. After the first 30 seconds of the experiment, 50 μL of the Ag^+ solution was added to 3 mL of liposomes, resulting in a silver gradient of 50 μM. The fluorescence level was monitored for 600 seconds after the addition of the copper solution.
When a solution of DMSO with the calix[4]arene of the formula (2) was added to the liposomes (5 μL, to obtain a 1:1000 transport to lipid ratio) the decrease in fluorescence intensity of BCS was much faster (F/F0=0.55 after 100 s) compared to when DMSO without calix[4]arene of the formula (2) (5 μL) was added (F/F0=0.85 after 100 s).

[2] = tested on: A549 human lung cancer cell line; test: Inhibition of A549 cell proliferation (cell count); type: cell-based; details: 2 μM, until 72 hours
Experimental: The inhibition of a A549 human lung cancer cell line proliferation by the calix[4]arene of the formula (2) was determined by exposure of said A549 human lung cancer cell line to a concentration of 2 μM of the calix[4]arene of the formula (2) until 72 hours. The absolute number of cells were counted in the treated and untreated conditions before treatment (N0) and after 72 hours (Nt).
The FIG. 1 is a graph showing: • the profile of the proliferation index Nt/N0 of the A549 cells after exposure with the calix[4]arene of the formula (2) with respect to the time (i.e. the curve entitled “calix[4]arene (2)”), • the profile of the proliferation index Nt/N0 of the A549 cells without any exposure with the calix[4]arene of the formula (2) with respect to the time (i.e. the curve entitled “untreated”).
“Nt” is number of cells at time “t” and “No” is number of cells before treatment.

[3] = tested on: PC9 human lung cancer cell line; test: Inhibition of PC9 cell proliferation (cell count); type: cell-based; details: 3 μM, until 72 hours
Experimental: The inhibition of a PC9 human lung cancer cell line proliferation by the calix[4]arene of the formulation (2) was determined by exposure of said PC9 human lung cancer cell line to a concentration of 3 μM of the compound of the formula (2) until 72 hours. The absolute number of cells were counted in the treated and untreated conditions before treatment (N0) and after 72 hours (Nt).
The FIG. 2 is a graph showing: • the profile of the proliferation index Nt/N0 of the PC9 cells after exposure with the calix[4]arene of the formula (2) with respect to the time (i.e. the curve entitled “calix[4]arene (2)”), • the profile of the proliferation index Nt/N0 of the PC9 cells without any exposure with the calix[4]arene of the formula (2) with respect to the time (i.e. the curve entitled “untreated”).

[4] = tested on: Non-malignant MRC5-SVII cells; test: MTS cytotoxicity assay on MRC5-SVII; type: cell-based; details: 72 hours of treatment
Experimental: Cells were grown in Minimal Essential Medium—Non Essential Amino Acids (MEM NEAA) culture medium from Gibco™, supplemented with sodium pyruvate ([…]), and fetal calf serum (FCS, 10%) and treated with a broad range of concentrations of the 2nd comparative example of the formula (XI).

Escherichia coli = test: Minimal inhibitory concentration, bacterial growth in 96 well plate; type: cell-based; details: E. coli, with 100 μM CuSO4
Experimental: (§1) The efficiency of a compound of interest on a bacterial strain is evaluated by measuring its minimal inhibitory concentration (hereafter abbreviated “MIC”). MICs are measured by following the bacterial growth in a 96 wells plate exposed to a range of concentrations of the compound of interest.
(§2) A small amount of the frozen bacteria (stored at −80° C. in glycerol) was mixed in 25 mL of Lysogeny broth (i.e. a nutritionally rich medium used for the growth of bacteria which comprises 10 g of tryptone, 5 g of yeast extract, 10 g of NaCl, and 1 L of distilled water; with the pH adjusted to 7.0 with 1 N NaOH; and autoclaved for 25 min at 120° C.) in a falcon tube and then placed in an incubation chamber at 180 rpm and 37° C. After 16 to 24 hours, 25 mL of Lysogeny broth was added to the growth media and placed back in the incubation chamber for two hours. The absorption of the resulting solution was measured at 600 nm (hereafter abbreviated “OD600”) using Lysogeny broth as blank and then the solution was diluted to 0.1±0.01.
(§3) 96 Well plates were filled with 20 μL of 1 mM CuSO4 solution, then 160 μL of growth media was added. Finally, 20 μL of DMSO solutions containing a range of concentrations of the tested calix[4]arene of the formula (2) was added. […] For each condition three wells were used. The top and bottom rows were used as control, the top row only contained Lysogeny broth and the bottom one contained the growth media, DMSO and CuSO4. The plates were placed in the incubator for 16 to 24 hours. The absorbance of each well was measured at 600 nm with a multiplate reader (Fluostar from Optima).
(§4) The ratio between the average absorption value of three wells (OD) with the same conditions minus the average of the 12 negative controls (OD(negative)) and the average of the 12 positive control (OD(positive)) minus the negative control yielded the growth value which was subtracted from one and multiplied by a hundred to give the inhibition percentage (Equation 1).
(§5) The MIC50 or MIC90 is defined by the lowest concentration for which the inhibition value is at/over 50 or 90%. For a given experimental conditions three rows are used in a plate. The whole process was also repeated three times to obtain triplicates. MIC values were the determined by the average values obtained.

Staphylococcus aureus = test: as above; type: cell-based; details: SA, with 100 μM CuSO4
Experimental: as §1, §2, §3, §4, §5

[5] = tested on: methicillin resistant Staphylococcus aureus; test: as above; type: cell-based; details: MRSA, with 100 μM CuSO4
Experimental: as §1, §2, §3, §4, §5

[6] = tested on: vancomycin resistant enterococcus; test: as above; type: cell-based; details: VRE, with 100 μM CuSO4
Experimental: as §1, §2, §3, §4, §5

[7] = tested on: PC9 human lung cancer cells; test: MTS cytotoxicity assay, combination with CuCl2, PC9; details: Homo sapiens, 72 h, read-out: percentage of cell viability
Experimental: PC9 human lung cancer cells were seeded in 96-well plates together with the calix[4]arene of the formula (2) and CuCl2. Cells were grown in RPMI-1640 supplemented with GlutaMAX™ (Gibco™) and fetal calf serum (FCS, 10%) treated with a broad range of concentrations of the calix[4]arene of the formula (2) or/and CuCl2 from Merck. After 72 hours of treatment, the cytotoxicity was measured by means of the IC50 value, using the kit “CellTiter 96R AQuous One Solution Cell Proliferation Assay (MTS)” from Promega™. Following 30 minutes of incubation with the MTS reagent, the endpoint measurements were done in triplicate at 485 nm, using a fluorescence plate reader.

In the case of `CCCOc1c2cccc1Cc1cccc(c1OCc1nccn1C)Cc1cccc(c1OCCC)Cc1cccc(c1OCc1nccn1C)C2` [(2)], the “F/F0 (fluorescence intensity of BCS)” value [1] is reported as 0.55, the “proliferation index Nt/N0 (FIG. 1)” value [2] is reported as “clearly inhibits the proliferation” and the “proliferation index Nt/N0 (FIG. 2)” value [3] is reported as “clearly inhibits the proliferation”. The IC50 [4] was 1.03 µM, the MIC50 (Escherichia coli) was 0.8 µM (≈ 0.558 µg/mL) and the MIC90 (Escherichia coli) was 1.6 µM (≈ 1.12 µg/mL). The MIC50 (Staphylococcus aureus) was 0.8 µM (≈ 0.558 µg/mL), the MIC90 (Staphylococcus aureus) was 1.6 µM (≈ 1.12 µg/mL) and the MIC50 [5] was 0.8 µM (≈ 0.558 µg/mL). It also gave an MIC90 [5] of 0.8 µM (≈ 0.558 µg/mL), an MIC50 [6] of 0.8 µM (≈ 0.558 µg/mL) and an MIC90 [6] of 1.6 µM (≈ 1.12 µg/mL). For the same compound, the viability at 0.1 µM [7] was 99.9%, the viability at 0.5 µM [7] was 93.1% and the viability at 1 µM [7] was 75.8%. The viability at 1.5 µM [7] was 24.4%.
